Laboratory results taken from patent publication US4068074A, “Cephalosporin derivatives having at the 3-position of the cephem ring a heterocyclic thiomethyl group with a carboxy or sulfo group and at the 7-position of the cephem ring an α-heterocylic acylaminophenyl-acetamide group” (priority 1974, dated 1978).
≈ marks a conversion by molar mass, not a printed value. Read-outs that look alike come from different tables or passages of the source.

Key:
[1] = test system: β-lactamase isolated from Pseudomonas aeruginosa 21; assay: Resistance to β-lactamase: amount of unaltered test sample (Table 3); type: biochemical; details: initial concentration 100γ/ml
Source text: For example, the relation between the amount (γ/ml) of an unaltered test sample at an initial concentration of the sample 100γ/ml against β-lactamase isolated from Pseudomonas aeruginosa 21 at various dilutions of the enzyme were investigated.

[2] = test system: Staphylococcus Shimanishi; assay: MIC against bacteria (Table I), strain (17); type: cell-based; details: Staphylococcus
Source text: (§1) Now, for illustrating the excellent pharmacological effects of the compounds of this invention, the values of MIC (γ/ml.) of the compounds against various bacteria are shown in Table 1, in which the compounds of this invention used are shown by example numbers.
(17) Staphylococcus Shimanishi

[3] = test system: Pseudomonas aeruginosa ATCC 8689; assay: MIC against bacteria (Table I), strain (4); type: cell-based; details: ATCC8689
Source text: as §1
(4) Pseudomonas aeruginosa ATCC 8689

[4] = test system: Shigella flexneri 2a 1675; assay: MIC against bacteria (Table I), strain (11); type: cell-based; details: 2A1675; (11) Shigella flexneri 2a 1675; read-out: MIC
Source text: as §1

[5] = test system: Staphylococcus aureus 209P; assay: MIC against bacteria (Table I), strain (16); type: cell-based
Source text: as §1
(16) Staphylococcus aureus 209P

[6] = Residual antibacterial activity after incubation with 90% plasma (Table 4); type: in vitro ADME, male Sprague-Dowley rat; details: 90% rat plasma; for remaining at 0.25 h / remaining at 0.5 h / remaining at 1.5 h: 90% plasma; for remaining at 0.25 h: 15 minute; for remaining at 0.5 h: 30 minute; for remaining at 1.5 h: 90 minute; for Residual activity: 0 minute
Protocol: (§2) The relation between the reaction period of time and the antibacterial activity (residual activity, %) when these compounds are incubated with the plasma and the liver homogenate of a male Sprague-Dowley rat is shown in Table 4. The residual antibacterial activity was measured by a thin-layer cup method according to Bacillus subtilis ATCC 6633.
A*Residual activity (%) when incubated with 90% plasma.

[7] = test system: Shigella sonnei II 37148; assay: MIC against bacteria (Table I), strain (12); type: cell-based; details: II37148; (12) Shigella sonnei II 37148; read-out: MIC
Source text: as §1

[8] = test system: Pseudomonas aeruginosa 99 (Gentamycin resistant); assay: MIC against bacteria (Table I), strain (5); type: cell-based
Source text: as §1
(5) Pseudomonas aeruginosa 99 (Gentamycin resistant)

[9] = test system: Staphylococcus Onuma; assay: MIC against bacteria (Table I), strain (18); type: cell-based
Source text: as §1
(18) Staphylococcus Onuma

[10] = test system: Escherichia coli kauffmann 0-1; assay: MIC against bacteria (Table I), strain (7); type: cell-based; details: Escherichia coli
Source text: as §1
(7) Escherichia coli kauffmann 0-1

[11] = test system: Bacillus subtilis ATCC 6633; assay: MIC against bacteria (Table I), strain (14); type: cell-based; details: ATCC6633
Source text: as §1
(14) Bacillus subtilis ATCC 6633

[12] = test system: Klebsiella pneumoniae ATCC 10031; assay: MIC against bacteria (Table I), strain (8); type: cell-based; details: Klebsiella pneumoniae, ATCC10031
Source text: as §1
(8) Klebsiella pneumoniae ATCC 10031

[13] = test system: Salmonella typhi H901 W; assay: MIC against bacteria (Table I), strain (9); type: cell-based; details: Salmonella enterica, TYPHI
Source text: as §1
(9) Salmonella typhi H901 W

[14] = type: in vitro ADME
Source text: Still another advantage of the compounds of this invention is that they are not inactivated in the internal organs of the body. For example, when the compounds of this invention and cephalotin are each homogenized with internal organs, the compounds of this invention are not decomposed while cephalotin is decomposed.

[15] = test system: Proteus vulgaris 0X 19US; assay: MIC against bacteria (Table I), strain (2); type: cell-based; details: 0X19US
Source text: as §1
(2) Proteus vulgaris 0X 19US

[16] = Residual antibacterial activity after incubation with 10% liver homogenate (Table 4); type: in vitro ADME, male Sprague-Dowley rat; details: for remaining at 0.25 h / remaining at 0.5 h / remaining at 1.5 h: 10% liver homogenate
Protocol: as §2
B*Residual activity (%) when incubated with 10% liver homogenate.

[17] = test system: Salmonella enteritidis; assay: MIC against bacteria (Table I), strain (10); type: cell-based; details: Salmonella enterica, ENTERITIDIS
Source text: as §1
(10) Salmonella enteritidis

[18] = Solubility of salts in water (Table 2); type: physicochemical; details: disodium salt, water, showing pH 7.4; read-out: Solubility: disodium salt dissolved in water in an amount of
Source text: An advantage of the compounds of this invention is that the salts, for example, sodium salts of these compounds are readily soluble in water at pH of living bodies, which makes them suitable for injections at high concentration. The solubility of these compounds are illustrated in Table 2 together with a control example.

[19] = test system: Micrococcus flavus ATCC 10240; assay: MIC against bacteria (Table I), strain (15); type: cell-based; details: Micrococcus flavus, ATCC10240
Source text: as §1
(15) Micrococcus flavus ATCC 10240

[20] = test system: Psuedomonas ovalis IMA 1002; assay: MIC against bacteria (Table I), strain (6); type: cell-based; details: (6) Psuedomonas ovalis IMA 1002; read-out: MIC
Source text: as §1
(6) Psuedomonas ovalis IMA 1002

[21] = test system: Bacillus megatherium 10778; assay: MIC against bacteria (Table I), strain (13); type: cell-based; details: (13) Bacillus megatherium 10778; read-out: MIC
Source text: as §1

[22] = test system: Proteus mirabilis IXM OM-19; assay: MIC against bacteria (Table I), strain (3); type: cell-based; details: IXMOM19; (3) Proteus mirabilis IXM OM-19; read-out: MIC
Source text: as §1
(3) Proteus mirabilis IXM OM-19

[23] = test system: Proteus vulgaris OXK US; assay: MIC against bacteria (Table I), strain (1); type: cell-based; details: (1) Proteus vulgaris OXK US; read-out: MIC
Source text: as §1
(1) Proteus vulgaris OXK US

Row | Structure (SMILES) | Amount of unaltered test sample ([1]; β-lactamase dilution ×2) [µg/mL] | Amount of unaltered test sample ([1]; β-lactamase dilution ×4) [µg/mL] | Amount of unaltered test sample ([1]; β-lactamase dilution ×8) [µg/mL] | Amount of unaltered test sample ([1]; β-lactamase dilution ×16) [µg/mL] | Amount of unaltered test sample ([1]; β-lactamase dilution ×32) [µg/mL] | Amount of unaltered test sample ([1]; β-lactamase dilution ×64) [µg/mL] | Amount of unaltered test sample ([1]; β-lactamase dilution ×128) [µg/mL] | Amount of unaltered test sample ([1]; β-lactamase dilution ×256) [µg/mL] | Amount of unaltered test sample ([1]; β-lactamase dilution ×512) [µg/mL] | Amount of unaltered test sample ([1]; β-lactamase dilution ×1024) [µg/mL] | MIC [2] [µg/mL] | MIC [4] [µg/mL] | remaining at 0.25 h [6] [%] | remaining at 0.5 h [6] [%] | remaining at 1.5 h [6] [%] | Residual activity [6] [%] | MIC [7] [µg/mL] | MIC [10] [µg/mL] | MIC [12] [µg/mL] | MIC [13] [µg/mL] | other results
1 | CC(=O)OCC1=C(C(=O)O)N2C(=O)[C@@H](NC(=O)Cc3cccs3)[C@H]2SC1 [Cephalotin, reference compound] | 0 | 0 | 0 | 0 | 2.6 | 11.8 | 46.8 | 81.6 | 100 | 100 | 0.39 (≈ 0.984 µM) | 6.25 (≈ 15.8 µM) | 87 | 66 | 36 | 100 | 6.25 (≈ 15.8 µM) | 3.13 (≈ 7.9 µM) | 0.78 (≈ 1.97 µM) | 1.56 (≈ 3.93 µM) | MIC ([3]; Pseudomonas aeruginosa): > 100 µg/mL; MIC ([5]; Staphylococcus aureus, 209P): 0.19 µg/mL (≈ 0.479 µM); MIC ([8]; Pseudomonas aeruginosa): > 100 µg/mL; MIC ([9]; Staphylococcus): 0.39 µg/mL (≈ 0.984 µM); MIC ([11]; Bacillus subtilis): < 0.09 µg/mL; Decomposition when homogenized with internal organs [14]: decomposed; MIC ([15]; Proteus vulgaris): 12.5 µg/mL (≈ 31.5 µM); Residual activity ([16]; rat, 0 min): 100%; remaining at 0.25 h ([16]; rat): 17.2%; remaining at 0.5 h ([16]; rat): 12.2%; remaining at 1.5 h ([16]; rat): 12.6%; MIC [17]: 0.39 µg/mL (≈ 0.984 µM)
2 | O=C(O)CSc1nnc(SCC2=C(C(=O)O)N3C(=O)[C@@H](NC(=O)[C@H](NC(=O)c4cnccc4O)c4ccccc4)[C@H]3SC2)s1 [Example 4, 7-[D-α-(4-hydroxynicotinoylamido)-α-phenylacetamido]-3-(5-carboxymethylthio-1,3,4-thiadiazol-2-yl)thiomethyl-Δ^3-cephem-4-carboxylic acid] | 0 | 29.6 | 61.0 | 100 | 100 | 100 | 100 | 100 | 100 | 100 | 3.13 (≈ 4.64 µM) | 0.78 (≈ 1.16 µM) | 97 | 93.9 | 103 | 100 | 3.13 (≈ 4.64 µM) | 3.13 (≈ 4.64 µM) | 3.13 (≈ 4.64 µM) | 1.56 (≈ 2.31 µM) | MIC ([3]; (4) Pseudomonas aeruginosa ATCC 8689, read-out: MIC): 12.5 µg/mL (≈ 18.5 µM); MIC ([5]; (16) Staphylococcus aureus 209P, read-out: MIC): 0.78 µg/mL (≈ 1.16 µM); MIC ([8]; (5) Pseudomonas aeruginosa 99 (Gentamycin resistant), read-out: MIC): 6.25 µg/mL (≈ 9.26 µM); solubility [18]: > 200 mg/mL; MIC ([9]; (18) Staphylococcus Onuma, read-out: MIC): 6.25 µg/mL (≈ 9.26 µM); MIC [19]: 3.13 µg/mL (≈ 4.64 µM); MIC [20]: 6.25 µg/mL (≈ 9.26 µM); MIC ([11]; (14) Bacillus subtilis ATCC 6633, read-out: MIC): 0.19 µg/mL (≈ 0.282 µM); MIC [21]: 0.19 µg/mL (≈ 0.282 µM); MIC [22]: 0.39 µg/mL (≈ 0.578 µM); MIC [23]: < 0.09 µg/mL; MIC ([15]; (2) Proteus vulgaris 0X 19US, read-out: MIC): 0.19 µg/mL (≈ 0.282 µM); remaining at 0.25 h ([16]; 10% rat liver homogenate, 15 minute, read-out: Residual activity): 93.5%; remaining at 0.5 h ([16]; 10% rat liver homogenate, 30 minute, read-out: Residual activity): 91.3%; remaining at 1.5 h ([16]; 10% rat liver homogenate, 90 minute, read-out: Residual activity): 102%; Residual activity ([16]; 10% rat liver homogenate, 0 minute): 100%; MIC [17]: 0.39 µg/mL (≈ 0.578 µM)
